{"source": "patent US20250170137A1", "about": "“Compositions for preventing or treating heart failure (HF)” (CHONG KUN DANG PHARMACEUTICAL CORP., priority 2022, published 2025)", "key": {"[1]": {"test_system": "acetyl tubulin in H9c2 cells", "assay": "Effect on acetyl tubulin in H9c2 cells (western blot)", "format": "cell-based, Rat", "conditions": "treated for each concentration, four hours at 37° C., western blot vs GAPDH (FIGS. 1 and 2)", "experimental": "H9c2 (2.0×10^5 cells/well, Rat, heart, myoblast) cells were seeded in a six-well plate and treated with drugs (compounds 43, 295, 296, 40, 239, and 285) for each concentration. In four hours later at 37° C., proteins were extracted with lysis buffer and quantified by Bradford method. […] of proteins were dissolved in sample buffer, electrophoresed on 4-12% gradient gel, transferred to a nitrocellulose membrane for seven minutes, and blocked in 3% BSA solution for one hour. Anti-acetyl tubulin (1:1,000) and GAPDH (1:2,000) were added to a 3% BSA solution, after which the membrane was immersed therein and reacted at 4° C. for 10 hours, and then washed three times with 1×TBST for 10 minutes each. IgG-HRP antibody (1:5,000) was added to 5% BSA, after which the membrane was immersed therein and reacted at room temperature for one hour, and then washed three times with 1×TBST for 10 minutes each."}, "[2]": {"test_system": "isolated heart of normal rabbits", "assay": "Langendorff evaluation of heart safety (Q-T interval of ECG)", "design": "species or system Rabbit", "conditions": "for Q-T interval: normal rabbit heart, ECG 30 minutes later, n = 6, mean ± standard error; for effect on QT interval compared to normal ECG (in words): dofetilide 0.3 μM and 1 μM, compound 43 1 μM (FIGS. 5 and 6)", "experimental": "(§1) The male rabbits were anesthetized by breathing, and the hearts were removed therefrom. After removing the connective tissues, the hearts were perfused with 37° C. physiological solution (modified KrebsHenseleit bicarbonate buffer; composition: 116 mM/L NaCl, 4.7 mM/L KCl, 1.1 mM/L MgSO4, 1.17 mM/L KH2PO4, 24.9 mM/L NaHCO3, 2.52 mM/L CaCl2), 8.32 mM/L glucose) saturated with 95% O2/5% CO2 under constant pressure perfusion, and electrodes were connected at the atrium and ventricle so as to confirm a stabilization state by measuring an electrocardiogram for one hour.\nAfter confirming the stabilization state of the heart through the electrocardiogram for one hour, the compound was administered to the physiological solution, and the electrocardiogram was measured in 30 minutes later so as to analyze the Q-T interval.\nUsing dofetilide as a control drug, the effect of the compound according to the present disclosure (compound 43: compound of Synthesis Example 1) on the QT interval of ECG was confirmed in normal rabbits.\nRabbits were prepared under the same conditions as in 1) and divided into a normal group, a dofetilide-treated group, and a compound 43-treated group, after which the hearts of the rabbits were extracted according to the Langendorff experimental method in 2-2), so as to analyze the Q-T interval according to 2-3), and the results thereof are shown in FIGS. 5 and 6 and in Tables 2 and 3 below. In above FIGS. 5 and 6 and Tables 2 and 3, the Control may refer to a normal group, and all data values in Tables 2 and 3 are expressed as mean standard error."}, "[3]": {"test_system": "iPSC-CM myocardial cells derived from patients with dilated cardiomyopathy (DCMP) heart failure", "assay": "Ca2+ transient activity in DCMP iPSC-CM accompanied by TPM1 mutation", "format": "cell-based, human", "conditions": "0.1-3 μM for 24 hours, 3 Hz stimulation 24 hours, Fluo-4 (FIG. 9)", "experimental": "In order to confirm the effect of the compound according to the present disclosure on preventing or treating heart failure disease, Ca^2+ transients in iPSC-CM myocardial cells derived from patients with dilated cardiomyopathy (DCMP) heart failure were analyzed.\nMyocardial cells derived from patients with heart failure were treated with compound 43 (Synthesis Example 1) for each concentration for 24 hours. After that, 3 Hz stimulation was given to both iPSC-CM myocardial cells derived from normal people (normal group, Normal) and iPSC-CM myocardial cells derived from patients with dilated cardiomyopathy (DCMP) heart failure for 24 hours in heart damage mimicking conditions (Tachycardia pacing). After each group was treated with Fluo-4 (AM, cell permeant-Thermo Fisher Scientific), a cell-permeable calcium dye, Ca^2+ images were taken in real time with a confocal microscope, so as to compare and analyze Ca^2+ transients between groups. Then, the results of the cells obtained from normal people are shown in FIG. 8, while the results of the cells obtained from patients with DCMP heart failure are shown in FIG. 9. Normal in above FIG. 8 may refer to myocardial cells not treated with Tachycardia pacing, and 0, 0.1, 1 and 3 in FIGS. 8 and 9 may represent the concentrations of compound 43 (compound of Synthesis Example 1) in cells treated with Tachycardia pacing. […]"}, "isolated rabbit heart": {"test_system": "isolated rabbit heart", "assay": "Langendorff evaluation of ventricular functions in heart damage mimicking conditions (Tachycardia pacing)", "text": "The Langendorff test method was used to evaluate the therapeutic effect of the compound on heart damage. The Langendorff test method is known as a test method that helps to determine the direct effect of the compound on the heart in terms of efficacy and safety. In particular, the method is easy to measure actual cardiac contractility and heart rates by removing peripheral hemodynamic variables that may extracardially interfere in experimental animals, and has the advantage of being able to intensively investigate a correlation between chemical structure and pharmacological action using various doses of the compound.\nas §1\nAfter confirming the stabilization state of the heart for one hour through an electrocardiogram, a heart damage stimulation with 50 Hz tachycardia pacing was applied for 30 minutes. After measuring the electrocardiogram of the atrium and ventricle, a test target compound (compound 43: the compound of […]) was administered to physiological solution, and the electrocardiogram was measured in one hour later. In order to check whether a drug effect is maintained even after the compound is removed from the physiological solution, the physiological solution containing the compound, in which the rabbit heart was immersed, was washed out, and the physiological solution without the compound was administered, so as to measure the electrocardiogram in one hour later.\nThe effect of the compound on improving ventricular functions was analyzed in ex vivo heart damage mimicking conditions (Tachycardia pacing), and the results thereof are shown in FIGS. 3 and 4 and Table 1. In above FIG. 4, ** on the graph may refer to P<0.01 when compared with the normal group(Sham), and ## may mean P<0.01 when compared with Tachycardia pacing (Comparative group, vehicle)."}, "[4]": {"test_system": "beagle dogs with induced heart disease", "assay": "Anti-fibrotic activity in tachycardia pacing heart disease model (western blot of cardiac tissue)", "format": "in vivo, beagle dog", "conditions": "1 mg/kg capsule, Bid, P.O.; tachycardia pacing 400 bpm; compared to group not dosed (FIG. 7)", "experimental": "For the introduction of anesthetic to the beagle dogs (male, 11 months old), pentobarbital (25 mg/kg) was intravenously administered thereto, and anesthesia was maintained through Isoflurane. A pacemaker's in vivo implantable electrode (bipolar pacing lead, Medtronic, IRE) was placed in the right atrial appendage by using C-arm (ARCADIS Varic, SIEMENS Co.) equipment and vascular contrast media, and then it was checked if the same was correctly inserted through a contrast image, and then the pacemaker's lead was fixed in the right atrial appendage. After stabilization for one week after surgery, the pacemaker was operated at 400 bpm to confirm normal induction by electrocardiography, and then tachycardia pacing was induced. Hemodynamic parameters for each group were measured. […]\nIn order to confirm the effect of the compound according to the present disclosure on preventing or treating heart failure disease, the expression of α-SMA and TGF-β, which are directly related to fibrosis in cardiac tissues, was analyzed. […] The expression of α-SMA and TGF-β was analyzed for each protein through western blot, so as to compare the degree of cardiac fibrosis between groups, and the results thereof are shown in FIG. 7."}, "[5]": {"test_system": "acetylated tubulin in atrial and ventricular tissues", "assay": "Acetylated tubulin in atrial and ventricular tissues in heart damage mimicking conditions (Tachycardia pacing)", "design": "species or system Rabbit", "conditions": "compound in physiological solution, western blot, compared to vehicle (FIGS. 10 and 11)", "experimental": "Male rabbits were prepared in the same manner as in Example 1, and the rabbits were divided into a normal group (Sham), a drug-untreated group (vehicle), and a drug-treated group (Compound).\nAfter that, the heart was evaluated by the Langendorff experimental method as in 2-1) of 2) in Example 2. For the drug-treated group, the heart was treated with the drug by administering compound 43 (compound according to Synthesis Example 1) to physiological solution as in 2-2) of 2) in Example 2.\nThen, the atria and the ventricles were separated, and then proteins were isolated from each tissue. The expression of acetylated tubulin was analyzed for each protein through western blot, so as to compare the expression levels between groups, and the results thereof are shown in FIGS. 10 and 11. * may mean P<0.05, ** may refer to P<0.01, and *** may represent less than P<0.001."}}}
{"molecule": "O=C(N1CCS(=O)(=O)CC1)N(Cc1ccc(-c2nnc(C(F)F)o2)cc1F)c1ccccc1", "note": "[Compound 40, N-(4-(5-(difluoromethyl)-1,3,4-oxadiazol-2-yl)-2-fluorobenzyl)-N-phenylthiomorpholine-4-carboxamide 1,1-dioxide]", "values": [{"measurement": "concentration of acetyl tubulin in H9c2 cells", "setting": "[1]", "value": "increase the concentration of acetyl tubulin in H9c2 cells in a concentration-correlated manner"}]}
{"molecule": "O=C(N1CCS(=O)(=O)CC1)N(Cc1ccc(-c2nnc(C(F)F)o2)cn1)c1cccc(Cl)c1", "note": "[Compound 239, N-(3-chlorophenyl)-N-((5-(5-(difluoromethyl)-1,3,4-oxadiazol-2-yl)pyridin-2-yl)methyl)thiomorpholine-4-carboxamide 1,1-dioxide]", "values": [{"measurement": "concentration of acetyl tubulin in H9c2 cells", "setting": "[1]", "value": "increase the concentration of acetyl tubulin in H9c2 cells in a concentration-correlated manner"}]}
{"molecule": "O=C(N1CCS(=O)(=O)CC1)N(Cc1ccc(-c2nnc(C(F)F)o2)cc1F)c1ccc(F)cc1", "note": "[Compound 285, N-(4-(5-(difluoromethyl)-1,3,4-oxadiazol-2-yl)-2-fluorobenzyl)-N-(4-fluorophenyl)thiomorpholine-4-carboxamide 1,1-dioxide]", "values": [{"measurement": "concentration of acetyl tubulin in H9c2 cells", "setting": "[1]", "value": "increase the concentration of acetyl tubulin in H9c2 cells in a concentration-correlated manner"}]}
{"molecule": "O=C(N1CCS(=O)(=O)CC1)N(Cc1ccc(-c2nnc(C(F)F)o2)cn1)c1ccc(F)cc1", "note": "[Compound 295, N-((5-(5-(difluoromethyl)-1,3,4-oxadiazol-2-yl)pyridin-2-yl)methyl)-N-(4-fluorophenyl)thiomorpholine-4-carboxamide 1,1-dioxide]", "values": [{"measurement": "concentration of acetyl tubulin in H9c2 cells", "setting": "[1]", "value": "increase the concentration of acetyl tubulin in H9c2 cells in a concentration-correlated manner"}]}
{"molecule": "O=C(N1CCS(=O)(=O)CC1)N(Cc1ccc(-c2nnc(C(F)F)o2)cn1)c1cccc(F)c1", "note": "[Compound 296, N-((5-(5-(difluoromethyl)-1,3,4-oxadiazol-2-yl)pyridin-2-yl)methyl)-N-(3-fluorophenyl)thiomorpholine-4-carboxamide 1,1-dioxide]", "values": [{"measurement": "concentration of acetyl tubulin in H9c2 cells", "setting": "[1]", "value": "increase the concentration of acetyl tubulin in H9c2 cells in a concentration-correlated manner"}]}
{"molecule": "CN(CCOc1ccc(NS(C)(=O)=O)cc1)CCc1ccc(NS(C)(=O)=O)cc1", "note": "[Dofetilide, dofetilide]", "values": [{"measurement": "Q-T interval", "setting": "[2]; 0.3 μM", "value": "199.2 ± 17.8", "unit": "ms"}, {"measurement": "Q-T interval", "setting": "[2]; 1 μM", "value": "205.4 ± 26.3", "unit": "ms"}, {"measurement": "effect on QT interval compared to normal ECG (in words)", "setting": "[2]", "value": "increased at both 0.3 μM and 1 μM"}]}
{"molecule": "O=C(N1CCS(=O)(=O)CC1)N(Cc1ccc(-c2nnc(C(F)F)o2)cn1)c1ccccc1", "note": "[compound 43, N-((5-(5-(difluoromethyl)-1,3,4-oxadiazol-2-yl)pyridin-2-yl)methyl)-N-phenylthiomorpholine-4-carboxamide 1,1-dioxide]", "values": [{"measurement": "Q-T interval", "setting": "[2]; 1 μM", "value": "125.4 ± 1.7", "unit": "ms"}, {"measurement": "effect on QT interval compared to normal ECG (in words)", "setting": "[2]", "value": "not affected"}, {"measurement": "Ca2+ transients", "setting": "[3]", "value": "Ca^2+ transients are recovered"}, {"measurement": "R-R interval, Average", "setting": "isolated rabbit heart; 1 μM in physiological solution, ECG one hour later, after 50 Hz tachycardia pacing for 30 minutes", "value": 240.8, "unit": "ms"}, {"measurement": "electrocardiogram (ventricular functions)", "setting": "isolated rabbit heart; 1 μM, tachycardia pacing (FIG. 3)", "value": "improved to a degree of the normal group (Control)"}, {"measurement": "cardioversion effect after the compound is removed", "setting": "isolated rabbit heart; after wash out of 1 μM compound (FIG. 3)", "value": "maintained for at least one hour"}, {"measurement": "R-R interval, Average, Wash out", "setting": "isolated rabbit heart; one hour after compound washed out of physiological solution, after 50 Hz tachycardia pacing", "value": 239.9, "unit": "ms"}, {"measurement": "expression of TGF-β in cardiac tissue", "setting": "[4]", "value": "reduced expression"}, {"measurement": "expression of α-SMA in cardiac tissue", "setting": "[4]", "value": "reduced expression"}, {"measurement": "expression of acetylated tubulin in atria and ventricles", "setting": "[5]", "value": "restored to that of the normal group (Sham)"}, {"measurement": "concentration of acetyl tubulin in H9c2 cells", "setting": "[1]", "value": "increase the concentration of acetyl tubulin in H9c2 cells in a concentration-correlated manner"}]}
